Experimental findings from ChEMBL document CHEMBL6103648, “AI-Driven Discovery of Highly Specific and Efficacious hCES2A Inhibitors for Ameliorating Irinotecan-Triggered Gut Toxicity” (J Med Chem, 2025) are described below.

This assay can be described thus: Inhibition of human CES2A using fluorescein diacetate as substrate preincubated for 3 mins followed by substrate addition measured after 30 mins by fluorescence based assay.
As to `CCN(C)C(=O)Oc1ccc(C(=O)N2CCC(CCCc3ccccc3)CC2)cc1OC`, the half-inhibitory concentration (IC50) was found to be 2.94 nM.
Compound `CCN(CC)C(=O)COc1ccc(C(C)=O)cc1OC` yielded an IC50 of 460 nM.
For the compound `CCN(C)C(=O)Oc1ccc(C(=O)N2CCC(C(=O)c3ccc(F)cc3)CC2)cc1OC`, the IC50 came out at 10.3 nM.
Then `CCN(C)C(=O)Oc1ccc(C(=O)N2CCC(Cc3ccccc3)CC2)cc1OCC1CC1`, with 1.02 nM; and `CCN(C)C(=O)Oc1ccc(CCC(=O)N2CCc3ccccc3C2)cc1`, with 7.39 nM.
The compound `COc1cc(CCC(=O)N2CCC(Cc3ccccc3)CC2)ccc1OC(=O)N(C)C` yielded an IC50 of 4.1 nM.
Consider `CCN(C)C(=O)Oc1ccc(CCC(=O)N2CCC(Cc3ccccc3)CC2)cc1OC`, for which the concentration for half-maximal inhibition (IC50) came to 3.31 nM.
In the case of `CCN(C)C(=O)Oc1ccc(/C=C/C(=O)N2CCC(Cc3ccccc3)CC2)cc1`, it took 1.46 nM to reach half-maximal inhibition (IC50).
`CCN(C)C(=O)Oc1ccc(CCC(=O)N2CCC(c3ccccc3)CC2)cc1OC` registered a half-inhibitory concentration (IC50) of 4.85 nM.
Then `CCN(C)C(=O)Oc1ccc(CCC(=O)N2CCc3ccccc3C2)cc1OC`, with 6.05 nM; and `CCOc1cc(C(=O)N2CCC(Cc3ccccc3)CC2)ccc1OC(=O)N(C)CC`, with 1.13 nM.
`CCN(C)C(=O)Oc1ccc(C(=O)N2CCN(Cc3ccccc3)CC2)cc1OC` yielded a 50% inhibitory concentration (IC50) of 5.93 nM.
Then `CCN(C)C(=O)Oc1ccc(C(=O)N2CCC(c3ccccc3)CC2)cc1OC`, with 1.47 nM; and `CNC(=O)COc1ccc(C(C)=O)cc1OC`, with 462 nM.
For the compound `CCN(C)C(=O)Oc1ccc(C(=O)N2CCc3ccccc3C2)cc1OC`, the IC50 came to 2.06 nM.
For `COc1cc(CCC(=O)N2CCC(Cc3ccccc3)CC2)ccc1OC(=O)N1CCOCC1`, the half-inhibitory concentration (IC50) turned out to be 7.27 nM.
As for `CCN(CC)C(=O)Oc1ccc(CCC(=O)N2CCC(Cc3ccccc3)CC2)cc1OC`, inhibition was half-maximal at 34 nM (IC50).
Then `CN(C)C(=O)C(CCN1CCC(O)(c2ccc(Cl)cc2)CC1)(c1ccccc1)c1ccccc1` [LOPERAMIDE], with 404 nM; and `CCN(C)C(=O)Oc1ccc(CCC(=O)N2CCN(Cc3ccccc3)CC2)cc1OC`, with 57.3 nM; and `CCN(C)C(=O)Oc1ccc(/C=C/C(=O)N2CCC(c3ccccc3)CC2)cc1OC`, with 3.18 nM.
With `CCN(C)C(=O)Oc1ccc(C(=O)N2CCC(Cc3ccc(F)cc3)CC2)cc1OC`, half-maximal inhibition (IC50) required 1.31 nM.

The IC50 is the point on the concentration scale where inhibition reaches its midpoint. Low readings indicate higher potency, high ones lower potency.
